Test systems include HOP-92; SN12C; SK-MEL-28; HCT-116; SF-268; SK-OV-3; K562; EKVX; A549; RXF 393; MOLT-4; OVCAR-5; SF-539; HCT-15; SW-620; U-251; UO-31; CCRF-CEM; HCC 2998.
What all share (test): NCI tumour cell line growth inhibition, 48 h

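Grown in 96-well plates, cells were treated for 48 hours with each compound at five concentrations. Insufficient inhibition: endpoint recorded as highest concentration tested. GI50 = concentration required for 50% inhibition of growth.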 Activity calls are given as the source filed them. No stated cut-off is given here; in the data, active = GI50 up to about 1.1 µM and inactive = higher. Where only a bound is given, the exact number is not on record here.

`NC(CC1=CS(=O)(=O)c2ccc(Cl)cc21)C(=O)O` (stereo not drawn): the GI50 in the experiment with HOP-92, in the experiment with SN12C, in the experiment with SK-MEL-28, with HCT-116, with SF-268 and in the experiment on SK-OV-3 was > 100 µM (inactive) throughout. In addition, the GI50 in the experiment with K562, with EKVX, in the experiment with A549, in the experiment with RXF 393, in the experiment with MOLT-4 and in the experiment on OVCAR-5 was > 100 µM (inactive) throughout. Besides, the GI50 is > 100 µM (inactive) in the experiment with SF-539, greater than 100 µM in the experiment on HCT-15, > 100 µM (inactive) in the experiment on SW-620 and > 100 µM (inactive) with U-251.

Turning to `O=S1(=O)c2ccccc2Oc2ccc(C(/C=N/O)=N/O)cc21`, the GI50 in the experiment with HOP-92 was 45.2 µM (inactive); with SN12C it was 61.9 µM (inactive); in the experiment with SK-MEL-28 it was 56.8 µM (inactive); with HCT-116, 43.7 µM (inactive); with SF-268, 30.1 µM (inactive); with SK-OV-3 it was 39.6 µM (inactive). Further, the GI50 is 24 µM (inactive) in the experiment on UO-31; 25.8 µM (inactive) in the experiment on CCRF-CEM; 30.1 µM (inactive) in the experiment with K562; 7.71 µM (inactive) with EKVX; 65.5 µM (inactive) in the experiment on A549; 15.5 µM (inactive) in the experiment with RXF 393. Moreover, the GI50 in the experiment on MOLT-4 was 27.5 µM (inactive); with OVCAR-5 it was > 100 µM (inactive); with SF-539, 26 µM (inactive); in the experiment on HCT-15, 41 µM; with U-251, 41.2 µM (inactive).

Take `NCCN1C(=O)c2cc(Cl)c(Cl)cc2C1(O)c1ccc(Cl)cc1` (stereo not drawn): the GI50 was 2.91 µM (inactive) in the experiment on HOP-92; 3.72 µM (inactive) in the experiment on SN12C; 1.75 µM (inactive) with SK-MEL-28; 1.72 µM (inactive) in the experiment with HCT-116; 2.32 µM (inactive) with SF-268; 13.5 µM (inactive) in the experiment with SK-OV-3. For the same compound, the GI50 in the experiment on UO-31 was 4.86 µM (inactive); with CCRF-CEM, 3.61 µM (inactive); in the experiment on K562, 1.91 µM (inactive); in the experiment with EKVX, 2.23 µM (inactive); in the experiment on A549, 2.09 µM (inactive); in the experiment with RXF 393, 1.59 µM (inactive). In addition, the GI50 in the experiment with MOLT-4 was 2.05 µM (inactive); in the experiment with OVCAR-5 it was 3.33 µM (inactive); in the experiment with SF-539 it was 1.7 µM (inactive); with HCT-15, 2.4 µM; with SW-620, 1.9 µM (inactive); in the experiment on U-251, 1.74 µM (inactive).

`CN1C2CCC1CN(CCOC(c1ccc(F)cc1)c1ccc(F)cc1)C2`: the GI50 is 21.4 µM (inactive) in the experiment with HOP-92; 47.9 µM (inactive) in the experiment on SN12C; 15.5 µM (inactive) in the experiment on SK-MEL-28; 17.8 µM (inactive) in the experiment with HCT-116; 46.7 µM (inactive) with SF-268; 42.3 µM (inactive) in the experiment on SK-OV-3. For the same compound, the GI50 in the experiment with UO-31 was 33.2 µM (inactive); in the experiment with CCRF-CEM, 36.7 µM (inactive); in the experiment with K562, 20 µM (inactive); in the experiment with EKVX, 23.8 µM (inactive); in the experiment with A549, 65 µM (inactive); in the experiment with RXF 393 it was 16.5 µM (inactive). For the same compound, the GI50 was 23.6 µM (inactive) in the experiment with MOLT-4; 56.6 µM (inactive) with OVCAR-5; 16.6 µM (inactive) in the experiment with SF-539; 32.9 µM in the experiment with HCT-15; 23.6 µM (inactive) with SW-620; 26.1 µM (inactive) in the experiment on U-251.

As to `COc1ccc2c(n1)Sc1nc3ccccc3nc1N2`, the GI50 was 78.5 µM (inactive) with HOP-92; 21 µM (inactive) in the experiment with SN12C; > 100 µM (inactive) in the experiment on SK-MEL-28; 33.7 µM (inactive) with HCT-116; 58.5 µM (inactive) in the experiment on SF-268; 37.2 µM (inactive) in the experiment with SK-OV-3. Further, the GI50 was 20 µM (inactive) in the experiment on UO-31; 29.4 µM (inactive) with CCRF-CEM; 30.3 µM (inactive) in the experiment with K562; 12.6 µM (inactive) with EKVX; > 100 µM (inactive) in the experiment on A549; 32.2 µM (inactive) in the experiment with RXF 393. Further, the GI50 in the experiment with MOLT-4 is 13.8 µM (inactive); in the experiment with OVCAR-5 it was 56.1 µM (inactive); in the experiment on SF-539, 14.4 µM (inactive); with HCT-15, 24.9 µM; in the experiment with SW-620, > 100 µM (inactive); in the experiment with U-251, 19.4 µM (inactive).

As to `CCN(CC)C(=O)CCCCCCCCC1CO1` (stereo not drawn), the GI50 in the experiment with HOP-92, with SN12C, in the experiment on SK-MEL-28, in the experiment with HCT-116, in the experiment with SF-268 and with SK-OV-3 was > 100 µM (inactive) in each case. For the same compound, the GI50 with UO-31, in the experiment on CCRF-CEM, in the experiment on K562, in the experiment with EKVX, in the experiment on A549 and in the experiment with RXF 393 was > 100 µM (inactive) in each case. The GI50 in the experiment on MOLT-4 is > 100 µM (inactive); in the experiment on OVCAR-5, > 100 µM (inactive); in the experiment on SF-539, > 100 µM (inactive); in the experiment with HCT-15 it was greater than 100 µM; in the experiment with SW-620 it was > 100 µM (inactive); in the experiment on U-251 it was > 100 µM (inactive).

As to `CCC(=O)Nc1ccc(/N=C/c2cccc(Oc3ccccc3)c2)cc1`, the GI50 was 85.3 µM (inactive) with HOP-92; > 100 µM (inactive) in the experiment with SN12C; 86.9 µM (inactive) with SK-MEL-28; 39.8 µM (inactive) in the experiment on HCT-116; 42.1 µM (inactive) with SF-268; > 100 µM (inactive) in the experiment with SK-OV-3. For the same compound, the GI50 in the experiment on UO-31 is 70.5 µM (inactive); in the experiment on CCRF-CEM, 12.6 µM (inactive); in the experiment with K562 it was 24.4 µM (inactive); in the experiment on EKVX, 65.5 µM (inactive); with A549 it was > 100 µM (inactive); with RXF 393 it was 50.9 µM (inactive). The GI50 is 23.9 µM (inactive) with MOLT-4, 16.4 µM (inactive) in the experiment on SF-539, greater than 100 µM in the experiment with HCT-15 and 37 µM (inactive) in the experiment with SW-620.

As to `COc1cc2c(/C=C3/C(=O)Nc4cccc(Cl)c43)c(Cl)[nH]c2cc1C`, the GI50 with HOP-92 is 8.17 µM (inactive); in the experiment with SN12C, 1.32 µM (inactive); with SK-MEL-28, 1.21 µM (inactive); with HCT-116 it was 1.49 µM (inactive); in the experiment on SF-268, 3.8 µM (inactive); with SK-OV-3 it was 2.21 µM (inactive). Moreover, the GI50 was 3.73 µM (inactive) with UO-31; 1.56 µM (inactive) in the experiment on CCRF-CEM; 1.76 µM (inactive) with K562; 2.09 µM (inactive) with A549; 2 µM (inactive) with RXF 393; 0.366 µM (active) in the experiment with MOLT-4. The GI50 in the experiment on OVCAR-5 is 4.02 µM (inactive); with SF-539, 1.6 µM (inactive); with HCT-15, 1.95 µM; in the experiment on SW-620, 2.24 µM (inactive); in the experiment on U-251, 1.78 µM (inactive).

Consider `C1=C(c2ccccc2)SC=C(c2ccccc2)S1`, for which the GI50 is 17.1 µM (inactive) with HOP-92; 29.9 µM (inactive) in the experiment with SN12C; 49 µM (inactive) in the experiment on SK-MEL-28; 44.5 µM (inactive) in the experiment with HCT-116; 28.3 µM (inactive) in the experiment on SF-268; 27.5 µM (inactive) with SK-OV-3. The GI50 is 60.5 µM (inactive) in the experiment on UO-31; 57.1 µM (inactive) with CCRF-CEM; 21 µM (inactive) with K562; 24.1 µM (inactive) in the experiment with EKVX; 32.1 µM (inactive) with A549; 1.05 µM (active) in the experiment with RXF 393. For the same compound, the GI50 was 25.3 µM (inactive) in the experiment on MOLT-4; 44.4 µM (inactive) in the experiment with OVCAR-5; 31.7 µM (inactive) in the experiment on SF-539; 26.2 µM in the experiment with HCT-15; 25.9 µM (inactive) with SW-620; 38.4 µM (inactive) with U-251.

`O=[N+]([O-])C(=C1NCCN1)/C(Cl)=C(/Cl)N1CCOCC1`: the GI50 with SN12C, with SK-MEL-28, in the experiment with HCT-116, in the experiment on SF-268, with SK-OV-3 and with UO-31 was > 100 µM (inactive) each time. Besides, the GI50 in the experiment with CCRF-CEM, in the experiment on K562, in the experiment on EKVX, in the experiment on HCC 2998, with A549 and in the experiment with MOLT-4 was > 100 µM (inactive) each time. For the same compound, the GI50 in the experiment with OVCAR-5 is > 100 µM (inactive); in the experiment with SF-539, > 100 µM (inactive); in the experiment with HCT-15 it was greater than 100 µM; in the experiment on SW-620, > 100 µM (inactive); in the experiment on U-251 it was > 100 µM (inactive).

As to `O=C(O)C1C2C=CC(O2)C1C(=O)Nc1ncccn1` (stereo not drawn), the GI50 in the experiment with HOP-92, in the experiment with SN12C, in the experiment with SK-MEL-28, in the experiment with HCT-116, with SF-268 and in the experiment on SK-OV-3 was > 100 µM (inactive) each time. Besides, the GI50 in the experiment with UO-31 is > 100 µM (inactive); with CCRF-CEM it was > 100 µM (inactive); in the experiment with K562 it was 97.9 µM (inactive); with EKVX, > 100 µM (inactive); in the experiment on A549, > 100 µM (inactive); in the experiment on RXF 393 it was > 100 µM (inactive). For the same compound, the GI50 with MOLT-4 is > 100 µM (inactive); in the experiment on OVCAR-5 it was > 100 µM (inactive); in the experiment on SF-539 it was > 100 µM (inactive); in the experiment on HCT-15, greater than 100 µM; in the experiment with SW-620, > 100 µM (inactive); in the experiment with U-251 it was > 100 µM (inactive).

Regarding `Cc1ccccc1/N=N/c1ccc(/N=N/c2c(O)ccc3ccccc23)c(C)c1` [SCARLET RED], the GI50 with HOP-92 is > 100 µM (inactive); in the experiment on SN12C, > 100 µM (inactive); in the experiment with SK-MEL-28, > 100 µM (inactive); in the experiment on HCT-116, > 100 µM (inactive); with SF-268 it was 70.3 µM (inactive); with SK-OV-3, > 100 µM (inactive). The GI50 is > 100 µM (inactive) in the experiment with UO-31; > 10 µM (inactive) in the experiment with CCRF-CEM; > 100 µM (inactive) with K562; > 100 µM (inactive) with EKVX; > 100 µM (inactive) with A549; > 100 µM (inactive) in the experiment with RXF 393. Further, the GI50 with MOLT-4 was > 100 µM (inactive); with OVCAR-5, > 100 µM (inactive); in the experiment on HCT-15, greater than 100 µM; in the experiment with SW-620, > 100 µM (inactive); in the experiment with U-251 it was > 100 µM (inactive).
